Assay results reported in PMC12591484 (PLOS One, 2025).

Experiments:
Design in all cases: key: +: Mutant-function studies are deemed positive when bulky mutations (mostly tryptophans) at the site significantly reduce positive modulation by anesthetics; -: Negative results are indicated by “–“ symbols
[1] = biological target: T1, α1M236Cβ3γ2L GABAA receptors (Homo sapiens, UniProt P14867+P18507+P28472, M263C); assay: Drug protection from pCMBS modification (SCAMP); assay type: cell-based; details: results of this study (*); some cells also cite [9]
T1 construct: expressed in transfected cells; host or cells: Xenopus oocytes injected with capped mRNA, 1α:1β:5γ
Experimental: (§1) Experiments were performed in ND-96 buffer at room temperature (20–22°C). Oocytes were placed in a low-volume (30µl) flow chamber and impaled with borosilicate microelectrodes filled with 3M KCl (resistance 0.5–3 MΩ) and voltage-clamped at −50 mV (model OC-725C; Warner Instruments, Hamden, CT, USA). Superfusate solutions in ND-96 were delivered at 2 ml/min from glass syringe reservoirs via computer-controlled valves (VC-8; Warner Instruments), a micro-manifold (ALA-VM8; ALA Scientific Instruments, Farmingdale, NY, USA), and PTFE tubing. Currents were digitized at 200 Hz on a computer running ClampEx v8.0 software (Molecular Devices, San Jose, CA, USA). Digitized traces were filtered with a 10-Hz low-pass Bessel function, leak corrected and analyzed for peak amplitude off-line using Clampfit v8 software (Molecular Devices).
(§2) Drug protection from pCMBS modification was assessed under pCMBS exposure conditions that produced approximately half of the maximal modification ratio for each mutant receptor, and a least a value of 3. This approach balanced the magnitude of functional modification signals (smaller with less pCMBS exposure) against the challenge of using a reversibly bound ligand to competitively block an irreversible covalent cysteine-modifying reaction. […] Each oocyte was used in a single SCAMP experiment. […] Etomidate was used as a positive control for anesthetic protection in α1M236C and β3M286C mutants and as a negative control in α1S270C, α1A291C, β3L231C, γ2S301C, γ2I242C, and γ2L246C mutants. R-mTFD-MPAB was used as a positive control in α1S270C, α1A291C, β3L231C, and γ2LS301C mutants and as a negative control in α1M236C and β3M286C mutants. For each cysteine mutant and protective drug combination, five oocytes were studied.
(§3) Non-linear least squares fits and statistical analyses were performed in Prism 10.4.0. (GraphPad Software, San Diego, CA, USA). […] Protection (steric inhibition of pCMBS modification) was inferred when anesthetics produced significant reductions in modification ratios relative to control (no anesthetic) values. The statistical significance threshold was p < 0.05.

[2] = system: α1β3γ2L GABAA receptors, bulky mutation at γ2L246; details: cited from earlier work
[3] = system: α1β3γ2L GABAA receptors, bulky mutation at β3L231; details: cited from earlier work
[4] = biological target: T2, α1β3γ2S301C GABAA receptors (Homo sapiens, UniProt P14867+P18507+P28472, S340C); assay: Drug protection from pCMBS modification (SCAMP); assay type: cell-based; details: results of this study (*)
T2 construct: expressed in transfected cells; host or cells: Xenopus oocytes injected with capped mRNAs mixed 1α:1β:5γ
T2 sequence (P14867 28-456): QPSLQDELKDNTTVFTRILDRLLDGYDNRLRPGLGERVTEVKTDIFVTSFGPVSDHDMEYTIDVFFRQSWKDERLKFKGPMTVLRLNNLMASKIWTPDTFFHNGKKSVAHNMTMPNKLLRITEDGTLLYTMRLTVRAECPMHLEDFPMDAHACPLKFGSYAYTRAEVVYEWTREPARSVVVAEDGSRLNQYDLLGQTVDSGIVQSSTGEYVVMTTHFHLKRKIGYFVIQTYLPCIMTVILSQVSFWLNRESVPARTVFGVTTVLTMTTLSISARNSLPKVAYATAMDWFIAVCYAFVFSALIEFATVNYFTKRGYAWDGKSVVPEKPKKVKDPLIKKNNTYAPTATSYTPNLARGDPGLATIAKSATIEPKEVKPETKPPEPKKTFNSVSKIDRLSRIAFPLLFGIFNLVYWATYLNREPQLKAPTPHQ
T2 sequence (P28472 26-473): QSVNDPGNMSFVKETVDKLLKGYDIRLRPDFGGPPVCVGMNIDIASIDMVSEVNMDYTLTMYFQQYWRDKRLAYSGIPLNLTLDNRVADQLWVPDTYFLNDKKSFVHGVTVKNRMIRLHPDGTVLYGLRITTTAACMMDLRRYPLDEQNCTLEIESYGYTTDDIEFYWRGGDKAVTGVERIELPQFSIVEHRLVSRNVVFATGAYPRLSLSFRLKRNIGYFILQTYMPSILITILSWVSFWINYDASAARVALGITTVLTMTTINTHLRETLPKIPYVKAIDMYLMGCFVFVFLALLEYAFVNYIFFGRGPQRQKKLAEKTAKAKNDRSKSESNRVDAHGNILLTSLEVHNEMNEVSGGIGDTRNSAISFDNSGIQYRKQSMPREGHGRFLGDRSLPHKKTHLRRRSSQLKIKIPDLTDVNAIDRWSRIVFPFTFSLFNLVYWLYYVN
T2 sequence (P18507 40-475 S340C): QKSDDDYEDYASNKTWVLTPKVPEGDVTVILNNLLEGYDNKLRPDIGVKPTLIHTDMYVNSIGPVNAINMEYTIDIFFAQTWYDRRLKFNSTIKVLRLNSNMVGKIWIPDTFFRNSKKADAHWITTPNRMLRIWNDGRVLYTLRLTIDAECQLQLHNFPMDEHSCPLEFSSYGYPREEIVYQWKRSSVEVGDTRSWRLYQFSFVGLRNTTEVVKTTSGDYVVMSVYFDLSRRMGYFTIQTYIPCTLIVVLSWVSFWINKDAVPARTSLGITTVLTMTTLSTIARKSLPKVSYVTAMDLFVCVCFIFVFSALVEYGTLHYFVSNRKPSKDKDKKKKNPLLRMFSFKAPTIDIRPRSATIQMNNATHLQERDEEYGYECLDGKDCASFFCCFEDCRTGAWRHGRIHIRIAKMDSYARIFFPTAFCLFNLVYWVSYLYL
Experimental: as §1, §2, §3

T1 sequence (P14867 28-456 M263C, one chain of several): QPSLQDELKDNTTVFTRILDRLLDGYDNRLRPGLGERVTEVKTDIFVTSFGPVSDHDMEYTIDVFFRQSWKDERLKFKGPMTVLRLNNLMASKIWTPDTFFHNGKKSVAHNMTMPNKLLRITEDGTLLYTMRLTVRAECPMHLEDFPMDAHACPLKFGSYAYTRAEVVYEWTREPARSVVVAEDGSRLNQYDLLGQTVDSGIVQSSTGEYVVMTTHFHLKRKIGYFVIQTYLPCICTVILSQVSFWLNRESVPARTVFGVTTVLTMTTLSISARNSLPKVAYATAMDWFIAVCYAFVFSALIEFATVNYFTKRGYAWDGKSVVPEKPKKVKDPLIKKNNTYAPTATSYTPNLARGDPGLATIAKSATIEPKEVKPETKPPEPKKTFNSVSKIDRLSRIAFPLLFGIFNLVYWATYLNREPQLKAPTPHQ
T1 sequence (P18507 40-475, one chain of several): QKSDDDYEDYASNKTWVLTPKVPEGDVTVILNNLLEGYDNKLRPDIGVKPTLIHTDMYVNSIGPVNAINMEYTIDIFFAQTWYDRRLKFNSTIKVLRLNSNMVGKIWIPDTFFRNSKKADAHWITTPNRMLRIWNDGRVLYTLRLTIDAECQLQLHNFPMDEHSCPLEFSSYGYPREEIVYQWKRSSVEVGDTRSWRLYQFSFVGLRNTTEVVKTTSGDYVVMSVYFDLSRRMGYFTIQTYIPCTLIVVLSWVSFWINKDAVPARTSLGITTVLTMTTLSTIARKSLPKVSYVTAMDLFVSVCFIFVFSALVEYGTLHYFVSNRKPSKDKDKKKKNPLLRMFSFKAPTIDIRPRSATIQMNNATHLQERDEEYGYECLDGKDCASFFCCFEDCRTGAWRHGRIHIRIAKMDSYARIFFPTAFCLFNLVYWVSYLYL

SMILES | SCAMP result, α1– (M1) M236 [1] | Mutant-function result, γ2– (M1) L246 [2] | Mutant-function result, β3– (M1) L231 [3] | SCAMP result, γ2+ (M2, M3) S301 [4]
C=CCC1(c2cccc(C3(C(F)(F)F)N=N3)c2)C(=O)NC(=O)N(C)C1=O (centres unmarked) [R-mTFD-MPAB, R-5-allyl-1-methyl-5-(m-trifluoromethyl-diazirynylphenyl) barbituric acid] | -^[9], * | -^[9] | -^[9] | 
CCOC(=O)c1cncn1[C@H](C)c1ccccc1 [etomidate, R-etomidate] |  | -^[9] | +^[9] | -*
CC(C)c1cc(C2(C(F)(F)F)N=N2)cc(C(C)C)c1CO [pTFD-di-iPr-BnOH] | -* |  |  | -*
